Results: patent publication US20260250639A1, “REPROGRAMMING METHOD” (Babraham Institute, priority 2022, published 2026)

How the values were obtained:
human fibroblasts = test: Yamanaka factor-mediated reprogramming of human fibroblasts, iPS colony count; type: cell-based; settings: human fibroblast reprogramming culture without OCT4-GFP reporter, vs vehicle control
Text: (§1) A-C) Yamanaka factor-mediated reprogramming of NSO4G neural stem cells. D) Yamanaka factor-mediated reprogramming of human fibroblasts. A) Schematic representation of the experimental design for data in panels B and C. B) Flow cytometry plots (left) and quantification data (right) for the number of GFP-positive cells at the end of reprogramming, in the presence of PADI4 or control shRNAs. C) Flow cytometry plots (left) and quantification data (right) for the number of GFP-positive cells at the end of reprogramming, in the presence of CI-amidine or vehicle control. D) Quantification of iPS colonies, as a measure of the degree of reprogramming, after Yamanaka factor-mediated reprogramming of human fibroblasts, in the presence of two independent PADI4 inhibitors (CI-amidine or GSK484) or vehicle controls. The inhibitors were administered throughout the course of reprogramming.
FIG. 10: Inhibition of extracellular chromatin component-sensing pathways inhibits reprogramming. A) Schematic representation of the extra-nuclear DNA sensing pathway cGAS/STING (left panel). Flow cytometry-based quantification of GFP-positive cells at the end of NSC reprogramming (day 15), in the presence of STING inhibitor H-151, vehicle control (DMSO) or no treatment (right panel). B) Schematic representation of the signalling pathway downstream of the Damage Associated Molecular Pattern (DAMP)-sensing Toll-Like Receptor 2 (TLR2; left panel). Flow cytometry-based quantification of GFP-positive cells at the end of NSC reprogramming (day 15), in the presence of TLR2 inhibitor MMG-11, vehicle control (DMSO) or no treatment (right panel). C) Colony count data for quantification of reprogramming of human fibroblast cells at the end of reprogramming (day 40) after treatment with STING inhibitor H-151 (left panel), TLR2 inhibitor MMG-11 (right panel) or vehicle control (DMSO).

NSO4G neural stem cells = test: Yamanaka factor-mediated reprogramming of NSO4G neural stem cells to iPSCs, flow cytometry of OCT4-GFP positive cells; type: cell-based, mouse; settings: NSC reprogramming culture, end of reprogramming (day 15)
Text: FIG. 1: Schematic of method of reprogramming of mouse neural stem cells into induced pluripotent stem (iPS) cells. The mouse neural stem cell (NSC) line NSO4G harbours the GFP transgene under the control of Oct4 regulatory elements. […] Upon reprogramming, iPSCs grow in colonies and express GFP, allowing their visualisation and isolation from the remaining, non-reprogrammed cells.
as §1, with “The inhibitors were administered throughout the course of reprogramming.” left out
To investigate the timing of PADI4 expression during reprogramming, the method of reprogramming neural stem cells (NSCs) to iPSCs described in Theunissen et al. (2011) Current Biology, 21(1): 65-71 (doi: https://doi.org/10.1016/j.cub.2010.11.074) was used (FIG. 1). […] At various reprogramming timepoints, the reprogramming cells were harvested and the levels of mRNA encoding PADI4 and NANOG were quantified by qPCR (FIG. 2A) and protein levels (FIG. 2B). […]
Medium was conditioned by culture on NSC reprogramming cultures (FIG. 5A, “Conditioned medium”, bottom panel) or by incubated in empty plates lacking cells under the same conditions (FIG. 5A, “Control medium”, top panel) and added to new reprogramming (receiving) cultures after every 24 h. Reprogramming efficiency of the receiving cultures was assessed by flow cytometry based GFP quantification at the end of the reprogramming assay (day 15). […]

[1] = system: citrullinated histone H3 (H3Cit), product of PADI4 activity; test: Western blot for citrullinated histone H3 in conditioned medium of NSC reprogramming cultures; type: cell-based, mouse; settings: conditioned medium from reprogramming cultures, similar total histone H3
Text: FIG. 7: Citrullinated histones are found in culture medium conditioned by reprogramming cultures. Immunoblot analysis for total histone H3 (top) and two different citrullination marks on histone H3 (middle and bottom) on conditioned medium of NSC reprogramming cells cultured in the presence or absence or the PADI4 inhibitor CI-amidine. Data from two independent experiments are shown. Citrullinated histone H3 is readily detected in the conditioned medium and inhibited by CI-amidine.
Based on this finding, the conditioned medium of Example 4 was analysed for the presence of H3Cit by Western blot (FIG. 7). Citrullinated histone H3 (H3Cit) can be readily detected in the conditioned medium from reprogramming cultures (FIG. 7, middle and lower panels labelled “H3CitR2” and H3CitR8”, lanes labelled “-CI-am”), and this is reduced in conditioned medium from reprogramming cultures in which the PADI4 inhibitor CI-amidine has been added (FIG. 7, middle and lower panels labelled “H3CitR2” and H3CitR8”, lanes labelled “+CI-am”), despite similar levels of total histone H3 being present (FIG. 7, top panel labelled “H3”).

Row | Structure (SMILES) | number of colonies (successfully reprogrammed cells) (human fibroblasts) | proportion of OCT4-GFP positive cells (reprogramming cells) at the end of reprogramming (NSO4G neural stem cells) | citrullinated histone H3 (H3CitR2, H3CitR8) detected in conditioned medium [1]
1 | COc1cc(C(=O)N2CC[C@@H](O)[C@@H](N)C2)cc2nc(-c3cc4ccccc4n3CC3CC3)n(C)c12 [GSK484] | significantly reduced | – | –
2 | CCc1ccc(NC(=O)Nc2c[nH]c3ccccc23)cc1 [H-151] | significantly reduced number of colonies | significantly reduced | –
3 | NC(=O)[C@H](CCCN=C(N)CCl)NC(=O)c1ccccc1 [CI-amidine] | significantly reduced | The same result is achieved | reduced
4 | CCOC(=O)c1ccc(CC(=O)c2ccc(O)c(O)c2O)o1 [MMG-11] | significantly reduced number of colonies | significantly reduced | –
